Assay results from patent US9777012B2, “Substituted furo[2,3-d]pyrimidines as multi-targeted receptor tyrosine kinase inhibitors and microtubule targeting antitumor agents” (Duquesne University of the Holy Spirit, priority 2014, dated 2017).
Where “and” joins values, the source holds several entries; their conditions need not be identical. Equal values may be shown once. Each block holds one compound with its values, some of them ahead of it.

Experiments:
[1] = tested on: cellular microtubules in A-10 cells; experiment: Cellular microtubule depolymerization, indirect immunofluorescence; type: cell-based; settings: for effect on cellular microtubules: result in words
VEGFR-2 = molecular target: T1, VEGFR-2 (Homo sapiens, UniProt P35968); experiment: Phosphotyrosine ELISA cytoblot, VEGFR-2 (U251 cells); type: cell-based; settings: for fold better than sunitinib, VEGFR-2: VEGFR-2 expressing cells; for IC50: U251 cells, phosphotyrosine ELISA, VEGF stimulation, read-out: VEGFR-2 kinase inhibition
T1 construct: tumor cell lines naturally expressing high levels of EGFR (A431), VEGFR-2 (U251); endogenous in cells; host or cells: U251

PDGFR-β = molecular target: T2, PDGFR-β (Homo sapiens, UniProt P09619); experiment: Phosphotyrosine ELISA cytoblot, PDGFR-β (SH-SY5Y cells); type: cell-based; settings: for fold better than sunitinib, PDGFR-β: PDGFR-β expressing cells; for IC50: SH-SY5Y cells, phosphotyrosine ELISA, PDGF-BB stimulation, read-out: PDGFR-β kinase inhibition
T2 construct: naturally expressing high levels of EGFR (A431), VEGFR-2 (U251), and PDGFR-β (SH-SY5Y); endogenous in cells; host or cells: SH-SY5Y

M6/6 cells = experiment: SRB antiproliferative assay, M6/6 (SK-OV-3 expressing Pgp); type: cell-based; settings: for IC50: Homo sapiens, SK-OV-3, SRB assay, 48 h, Pgp expressing, read-out: IC50 ± SD in M6/6 cells; for Rr value: relative resistance, M6/6 (Pgp) vs parental SKOV3
WTβ3 cells = experiment: SRB antiproliferative assay, WTβ3 (HeLa overexpressing βIII tubulin); type: cell-based; settings: relative resistance, WTβ3 vs parental HeLa
EGFR = molecular target: T3, EGFR (Homo sapiens, UniProt P00533); experiment: Phosphotyrosine ELISA cytoblot, EGFR (A431 cells); type: cell-based; settings: EGF stimulation, read-out: EGFR kinase inhibition
T3 construct: tumor cell lines naturally expressing high levels of EGFR (A431); endogenous in cells; host or cells: A431

A431 cancer cells = experiment: A431 cytotoxicity (cell proliferation); type: cell-based; settings: Homo sapiens, A-431; A431 cancer cells overexpressing EGFR
tubulin = experiment: Inhibition of tubulin assembly (purified tubulin); type: biochemical; settings: read-out: Inhibition tubulin assembly IC50(μM) ± SD

T1 sequence (P35968 20-1356): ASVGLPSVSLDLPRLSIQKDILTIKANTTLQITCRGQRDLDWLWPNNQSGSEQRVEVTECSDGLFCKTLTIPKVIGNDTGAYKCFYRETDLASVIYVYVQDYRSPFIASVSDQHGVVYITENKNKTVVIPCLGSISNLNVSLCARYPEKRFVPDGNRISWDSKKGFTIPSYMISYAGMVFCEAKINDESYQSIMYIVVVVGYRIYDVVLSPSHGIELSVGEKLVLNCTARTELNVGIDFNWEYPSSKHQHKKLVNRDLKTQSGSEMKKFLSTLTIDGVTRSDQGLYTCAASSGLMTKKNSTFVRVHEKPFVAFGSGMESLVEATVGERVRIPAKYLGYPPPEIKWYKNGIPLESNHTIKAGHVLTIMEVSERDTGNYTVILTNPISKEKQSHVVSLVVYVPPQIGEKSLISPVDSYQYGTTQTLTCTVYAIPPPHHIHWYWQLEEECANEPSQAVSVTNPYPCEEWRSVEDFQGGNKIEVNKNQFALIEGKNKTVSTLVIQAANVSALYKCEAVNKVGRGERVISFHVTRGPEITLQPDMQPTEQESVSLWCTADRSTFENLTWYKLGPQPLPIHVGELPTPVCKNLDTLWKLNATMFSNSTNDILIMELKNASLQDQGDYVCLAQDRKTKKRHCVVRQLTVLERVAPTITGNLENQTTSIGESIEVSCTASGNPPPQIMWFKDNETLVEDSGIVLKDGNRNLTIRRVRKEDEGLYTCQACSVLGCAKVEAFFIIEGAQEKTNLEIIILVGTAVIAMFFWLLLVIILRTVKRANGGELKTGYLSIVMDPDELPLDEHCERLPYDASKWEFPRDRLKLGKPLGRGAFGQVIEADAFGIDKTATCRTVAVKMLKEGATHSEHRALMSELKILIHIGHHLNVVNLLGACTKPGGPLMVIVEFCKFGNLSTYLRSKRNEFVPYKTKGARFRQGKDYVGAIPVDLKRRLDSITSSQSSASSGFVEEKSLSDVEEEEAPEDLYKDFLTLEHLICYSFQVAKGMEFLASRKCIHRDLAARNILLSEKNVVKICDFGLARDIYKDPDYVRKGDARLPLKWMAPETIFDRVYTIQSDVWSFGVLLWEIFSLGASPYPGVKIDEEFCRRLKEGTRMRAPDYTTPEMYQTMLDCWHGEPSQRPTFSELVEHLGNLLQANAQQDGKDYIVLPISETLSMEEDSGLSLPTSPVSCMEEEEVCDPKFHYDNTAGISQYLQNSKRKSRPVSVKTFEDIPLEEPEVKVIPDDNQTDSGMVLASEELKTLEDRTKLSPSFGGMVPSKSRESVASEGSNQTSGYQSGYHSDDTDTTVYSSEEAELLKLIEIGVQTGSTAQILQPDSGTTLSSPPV
T2 sequence (P09619 33-1106): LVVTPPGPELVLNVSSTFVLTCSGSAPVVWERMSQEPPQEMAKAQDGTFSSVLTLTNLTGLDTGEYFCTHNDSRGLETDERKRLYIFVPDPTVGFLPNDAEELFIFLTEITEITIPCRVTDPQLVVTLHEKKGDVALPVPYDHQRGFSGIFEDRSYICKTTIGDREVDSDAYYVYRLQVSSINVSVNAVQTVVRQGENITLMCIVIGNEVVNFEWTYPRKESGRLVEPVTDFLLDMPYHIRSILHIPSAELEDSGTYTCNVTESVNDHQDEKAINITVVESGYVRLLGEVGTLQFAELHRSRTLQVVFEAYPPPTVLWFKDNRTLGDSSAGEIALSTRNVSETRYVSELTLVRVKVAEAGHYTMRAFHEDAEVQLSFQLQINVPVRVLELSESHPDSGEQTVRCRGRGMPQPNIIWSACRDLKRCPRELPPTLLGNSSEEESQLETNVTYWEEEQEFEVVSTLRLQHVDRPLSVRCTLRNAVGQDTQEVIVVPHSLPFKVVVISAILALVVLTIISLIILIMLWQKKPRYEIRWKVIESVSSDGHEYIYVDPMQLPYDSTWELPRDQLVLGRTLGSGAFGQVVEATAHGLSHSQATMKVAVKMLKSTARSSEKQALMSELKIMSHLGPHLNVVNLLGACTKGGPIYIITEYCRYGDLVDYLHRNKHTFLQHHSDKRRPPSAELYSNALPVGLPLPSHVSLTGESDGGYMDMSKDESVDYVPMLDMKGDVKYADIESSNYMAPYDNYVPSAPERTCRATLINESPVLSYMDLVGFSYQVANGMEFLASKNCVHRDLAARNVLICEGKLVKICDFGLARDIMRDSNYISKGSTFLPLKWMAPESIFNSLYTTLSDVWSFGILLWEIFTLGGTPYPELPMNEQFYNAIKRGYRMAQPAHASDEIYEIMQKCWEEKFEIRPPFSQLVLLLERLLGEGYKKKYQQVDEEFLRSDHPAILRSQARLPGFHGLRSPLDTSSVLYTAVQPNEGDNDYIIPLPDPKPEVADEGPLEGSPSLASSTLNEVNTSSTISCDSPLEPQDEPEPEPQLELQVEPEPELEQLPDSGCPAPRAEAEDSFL
T3 sequence (P00533 25-1210): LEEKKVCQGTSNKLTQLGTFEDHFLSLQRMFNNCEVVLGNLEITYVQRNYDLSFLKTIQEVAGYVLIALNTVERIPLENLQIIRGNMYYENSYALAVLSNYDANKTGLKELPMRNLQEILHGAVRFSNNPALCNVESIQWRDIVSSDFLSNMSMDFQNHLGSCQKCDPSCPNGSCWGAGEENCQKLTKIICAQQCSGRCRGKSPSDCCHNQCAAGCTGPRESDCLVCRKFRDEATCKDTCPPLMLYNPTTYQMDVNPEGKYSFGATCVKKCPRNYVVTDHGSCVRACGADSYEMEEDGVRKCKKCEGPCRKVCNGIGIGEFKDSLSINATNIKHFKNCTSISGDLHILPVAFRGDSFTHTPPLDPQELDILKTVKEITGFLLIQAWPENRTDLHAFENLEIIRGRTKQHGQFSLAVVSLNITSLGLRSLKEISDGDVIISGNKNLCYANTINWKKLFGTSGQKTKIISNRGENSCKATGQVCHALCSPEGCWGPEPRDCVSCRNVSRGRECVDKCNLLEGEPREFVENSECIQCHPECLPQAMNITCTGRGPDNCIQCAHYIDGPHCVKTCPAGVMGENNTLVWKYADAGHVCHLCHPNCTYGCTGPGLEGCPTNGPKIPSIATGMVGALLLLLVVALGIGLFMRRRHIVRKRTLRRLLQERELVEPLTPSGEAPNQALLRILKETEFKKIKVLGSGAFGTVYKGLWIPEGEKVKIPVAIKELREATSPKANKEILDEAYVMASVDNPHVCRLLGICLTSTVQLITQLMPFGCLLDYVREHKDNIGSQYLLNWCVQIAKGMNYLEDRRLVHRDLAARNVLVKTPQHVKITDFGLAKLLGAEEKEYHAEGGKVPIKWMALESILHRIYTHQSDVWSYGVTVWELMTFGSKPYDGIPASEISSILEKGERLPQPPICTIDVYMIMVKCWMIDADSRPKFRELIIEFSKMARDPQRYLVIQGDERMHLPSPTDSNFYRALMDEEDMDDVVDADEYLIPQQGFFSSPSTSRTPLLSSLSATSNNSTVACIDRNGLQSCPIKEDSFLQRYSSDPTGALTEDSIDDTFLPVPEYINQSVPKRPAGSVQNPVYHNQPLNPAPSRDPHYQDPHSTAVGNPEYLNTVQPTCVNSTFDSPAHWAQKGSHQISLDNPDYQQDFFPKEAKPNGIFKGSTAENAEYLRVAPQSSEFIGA

fold better than sunitinib, VEGFR-2 (VEGFR-2): 3 fold
fold better than sunitinib, PDGFR-β (PDGFR-β): about 4 fold
IC50 (M6/6 cells): 509 ± 4.8 nM
Compound: Cc1nc(N(C)c2ccc3occc3c2)c2cc(C)oc2n1 [Compound 7, N-1-benzofuran-5-yl-N,2,6-trimethylfuro[2,3-d]pyrimidin-4-amine]
effect on cellular microtubules [1]: dose-dependent loss of cellular microtubules
Rr value (M6/6 cells): 1.2

IC50 (EGFR): > 500 nM
IC50 (VEGFR-2): > 300 nM
Compound: COc1cc(N(C)c2nc(C)nc3oc(C)cc23)cc(OC)c1OC [Compound 4, N,2,6-trimethyl-N-(3,4,5-trimethoxyphenyl)furo[2,3-d]pyrimidin-4-amine]

IC50 (EGFR): > 500 nM
IC50 (VEGFR-2): 121 ± 18.6 nM
IC50 (PDGFR-β): 132 ± 14.4 nM
IC50 (M6/6 cells): 30.8 ± 1.7 nM
Compound: CCCOc1ccc(N(C)c2nc(C)nc3oc(C)cc23)cc1 [Compound 12, N-2,6-trimethyl-N-(4-propoxyphenyl)furo[2,3-d]pyrimidin-4-amine]
IC50 (A431 cancer cells): 92.9 ± 10.1 nM
Rr value (M6/6 cells): 1.3

IC50 (EGFR): > 500 nM
Compound: COc1ccc2c(ccn2-c2nc(C)nc3oc(C)cc23)c1 [Compound 9, 4-(5-methoxy-1H-indol-1-yl)-2,6-dimethylfuro[2,3-d]pyrimidine]

IC50 (EGFR): 102 ± 20.1 nM
IC50 (VEGFR-2): 38.5 ± 4.7 nM
IC50 (PDGFR-β): 84 ± 10 nM
Compound: CCOc1ccc(N(C)c2nc(C)nc3oc(C)cc23)cc1 [Compound 11, N-(4-ethoxyphenyl)-N,2,6-trimethylfuro[2,3-d]pyrimidin-4-amine]

fold better than sunitinib, VEGFR-2 (VEGFR-2): 3 fold
fold better than sunitinib, PDGFR-β (PDGFR-β): about 4 fold
IC50 (M6/6 cells): 155 ± 17.2 nM
Compound: Cc1nc(N(C)c2ccc3c(c2)CCO3)c2cc(C)oc2n1 [Compound 6, N-(2,3-dihydro-1-benzofuran-5-yl)-N,2,6-trimethylfuro[2,3-d]pyrimidin-4-amine]
effect on cellular microtubules [1]: dose-dependent loss of cellular microtubules
Rr value (M6/6 cells): 1.3

The remaining lines, values behind:

Compound: COc1ccc2c(c1)CCN2c1nc(C)nc2oc(C)cc12 [Compound 8, 4-(5-methoxyindolin-1-yl)-2,6-dimethylfuro[2,3-d]pyrimidine]
effect on cellular microtubules [1]: no effect on cellular microtubules

Compound: CC(=O)O[C@H]1C(=O)[C@@]2(C)[C@H]([C@H](OC(=O)c3ccccc3)[C@]3(O)C[C@H](OC(=O)[C@H](O)[C@@H](NC(=O)c4ccccc4)c4ccccc4)C(C)=C1C3(C)C)[C@]1(OC(C)=O)CO[C@@H]1C[C@@H]2O [Paclitaxel, reference compound]
Rr value (WTβ3 cells): 17.3
Rr value (M6/6 cells): over 250 and 265.2

Compound: COc1ccc2c(c1)CCCN2c1nc(C)nc2oc(C)cc12 [Compound 10, 4-(6-methoxy-3,4-dihydroquinolin-1(2H)-yl)-2,6-dimethylfuro[2,3-d]pyrimidine]
effect on cellular microtubules [1]: dose-dependent loss of cellular microtubules

Compound: COc1ccc(N(C)c2nc(C)nc3oc(C)cc23)cc1OC [Compound 3, N-(3,4-dimethoxyphenyl)-N,2,6-trimethylfuro[2,3-d]pyrimidin-4-amine]
effect on cellular microtubules [1]: dose-dependent loss of cellular microtubules

Compound: COc1ccc(N(C)c2nc(C)nc3oc(C)cc23)cc1 [Compound 1]
EC50 ([1]; Rattus norvegicus, A10, 18 h, read-out: EC50 for MT depolymerization in A · 10 cells): 103 nM
Rr value (WTβ3 cells): 0.8
Rr value (M6/6 cells): 1.7
IC50 (tubulin): 2.4 ± 0.01 µM

Compound: COc1ccc(/C=C\c2cc(OC)c(OC)c(OC)c2)cc1O [CA-4, combretastatin A-4, reference compound]
Rr value (WTβ3 cells): 1.0
Rr value (M6/6 cells): 0.4
